# In article PMC7689250, “Synthetic Peptide Libraries Designed From a Minimal Alpha-Helical Domain of AS-48-Bacteriocin Homologs Exhibit Potent Antibacterial Activity” (Frontiers in Microbiology, 2020):
# Like-named read-outs stand apart in the source and are kept apart here. Residues, ends and D or L forms follow the SMILES beside them.
# Legend:
# [1] = test system: E. coli (BL21); assay type: cell-based, Escherichia coli
# Procedure: (§1) Peptides were screened against Escherichia coli (BL21), Streptococcus pyogenes (M1T1 5448, hereby referred to as M1), Pseudomonas aeruginosa (PAO1), and Staphylococcus aureus (USA300). Overnight bacterial cultures were grown in optimal media for each species: Luria-Bertani (LB) broth for E. coli, P. aeruginosa, and S. aureus, and Todd-Hewitt (TH) broth for S. pyogenes. Cultures were pelleted and re-suspended in Mueller-Hinton (MH) broth for peptide screens or minimal inhibitory concentration (MIC) assays, with 1 × 10^6 CFU/mL bacteria added per well ([Wiegand et al., 2008]). MICs for each parent peptide were identified against each bacterial strain as previously described ([Fields et al., 2018]). Members of each peptide library were screened against each bacterial strain at half of the MIC of the corresponding parent peptide to identify library members with increased antimicrobial activity relative to the parent peptide. […] Minimal bactericidal concentrations (MBCs) were determined following the respective MIC assays by plating aliquots from wells corresponding to each peptide concentration from the 96-well plate used for the MIC on species-appropriate agar. Plates were incubated at 37°C overnight, and MBCs were identified as the lowest concentrations of peptide at which no colonies were obtained. A Synergy H1 Microplate Reader (BioTek, Winooski, VT, United States) was used to determine the MICs and identify peptides with greater antimicrobial activity than the corresponding parent peptide by measuring OD 600 of the bacterial cultures in 96-well microtiter plates.
# [2] = test system: S. pyogenes (M1); assay type: cell-based, Streptococcus pyogenes; settings: for MBC: M1
# Procedure: as §1
# [3] = test system: S. aureus (USA300); assay type: cell-based, Staphylococcus aureus
# Procedure: as §1
# [4] = test system: P. aeruginosa (PAO1); assay type: cell-based, Pseudomonas aeruginosa; settings: for MBC: PAO1; for MIC: PAO1, 16 h
# Procedure: as §1
# [5] = test system: sheep erythrocytes; assay type: cell-based; settings: red cells of sheep, 1 h
# Procedure: To determine if peptide variants were hemolytic, fresh defibrinated whole sheep blood (Hardy Diagnostics) was washed three times in cold PBS, and washed blood was diluted 1:25 in PBS. Treatments were applied at a 1:10 ratio of sample:blood, where the sample was either 10% Triton, PBS, or a specific peptide concentration corresponding to concentrations used in the MIC assays. Treatments were incubated with the blood for 1 h at 37°C. Following incubation, samples were centrifuged at […] for 10 min at 4°C, and the absorbance of the supernatants at 450 nm was measured on the Synergy H1 Microplate Reader to measure the release of hemoglobin. Percent hemolysis was quantified by normalizing to the negative and positive controls.
"MIC ([1]; BL21, 16 h)","MIC ([2]; M1, 16 h)","MIC ([3]; USA300, 16 h)",MIC [4],MIC ([1]; E. coli BL21),MIC ([2]; S. pyogenes M1),"MIC ([2]; S. pyogenes M1, running text b43, unit printed nm)",MIC ([3]; USA300),Compound,MBC ([1]; BL21),MBC [2],MBC ([3]; USA300),MBC [4],Percent Hemolysis [5],MBC ([1]; E. coli BL21)
4 µM,2 µM,>128 µM,>128 µM,–,–,–,–,CC[C@H](C)[C@H](NC(=O)[C@H](Cc1ccccc1)NC(=O)[C@H](C)NC(=O)[C@H](CCCCN)NC(=O)[C@H](CCCCN)NC(=O)CNC(=O)[C@H](CCCNC(=N)N)NC(=O)[C@H](CCCCN)NC(=O)[C@H](CCCNC(=N)N)NC(=O)[C@H](CC(C)C)NC(=O)[C@H](CCC(=O)O)NC(=O)[C@H](CCC(=O)O)NC(=O)[C@H](CC(C)C)NC(=O)[C@H](CC(C)C)NC(=O)[C@H](Cc1ccc(O)cc1)NC(=O)[C@H](CCCCN)NC(=O)[C@@H](NC(=O)[C@H](CC(C)C)NC(=O)[C@H](C)NC(=O)[C@H](CCC(N)=O)NC(=O)[C@H](CCCNC(=N)N)NC(=O)CNC(=O)[C@H](C)N)[C@@H](C)O)C(=O)N[C@@H](Cc1c[nH]c2ccccc12)C(=O)N[C@@H](Cc1c[nH]c2ccccc12)C(=O)O [Syn-xiamencin-60] (H-AGRQALTKYLLEELRKRGKKAFIWW-OH; N-terminus and C-terminus assumed),8 µM,4 µM,>128 µM,>128 µM,10.9%,–
2 µM,2 µM,>128 µM,16 µM,–,–,–,–,CC[C@H](C)[C@H](NC(=O)[C@H](Cc1c[nH]c2ccccc12)NC(=O)[C@H](CCC(N)=O)NC(=O)[C@H](CCCNC(=N)N)NC(=O)CNC(=O)[C@H](C)N)C(=O)N[C@@H](CCCCN)C(=O)N[C@@H](C)C(=O)N[C@@H](Cc1ccc(O)cc1)C(=O)N[C@@H](CC(C)C)C(=O)N[C@@H](CCCNC(=N)N)C(=O)N[C@@H](CCCNC(=N)N)C(=O)N[C@@H](CCC(=O)O)C(=O)N[C@H](C(=O)N[C@@H](CCCNC(=N)N)C(=O)N[C@@H](CCCCN)C(=O)N[C@@H](CCCNC(=N)N)C(=O)NCC(=O)N[C@@H](CCCNC(=N)N)C(=O)N[C@@H](CCCCN)C(=O)N[C@@H](C)C(=O)N[C@H](C(=O)N[C@H](C(=O)N[C@@H](C)C(=O)N[C@@H](Cc1c[nH]c2ccccc12)C(=O)O)[C@@H](C)CC)C(C)C)[C@@H](C)CC [Syn-sordellicin-41] (H-AGRQWIKAYLRREIRKRGRKAVIAW-OH; N-terminus and C-terminus assumed),2 µM,4 µM,>128 µM,16 µM,15.5%,–
1 µM,0.5 µM,2 µM,32 µM,–,–,–,–,CC[C@H](C)[C@H](NC(=O)[C@H](CCCCN)NC(=O)[C@H](C)NC(=O)[C@H](CCCNC(=N)N)NC(=O)[C@H](CCCCN)NC(=O)CNC(=O)[C@H](CCCCN)NC(=O)[C@H](CCC(=O)O)NC(=O)[C@H](CCC(N)=O)NC(=O)[C@@H](NC(=O)[C@H](CCCCN)NC(=O)[C@H](CCCCN)NC(=O)[C@H](CCCCN)NC(=O)[C@H](CC(C)C)NC(=O)[C@H](CCCNC(=N)N)NC(=O)[C@H](CCC(N)=O)NC(=O)[C@H](Cc1ccccc1)NC(=O)[C@@H](NC(=O)[C@@H](NC(=O)[C@H](CCC(=O)O)NC(=O)[C@H](CCCCN)NC(=O)CNC(=O)[C@H](C)N)[C@@H](C)O)[C@@H](C)CC)[C@@H](C)CC)C(=O)N[C@@H](C)C(=O)N[C@@H](Cc1c[nH]c2ccccc12)C(=O)O [Syn-larvacin-91] (H-AGKETIFQRLKKKIQEKGKRAKIAW-OH; N-terminus and C-terminus assumed),2 µM,0.5 µM,2 µM,64 µM,23.4%,–
1 µM,4 µM,32 µM,4 µM,–,–,–,–,CC[C@H](C)[C@H](NC(=O)[C@H](CCC(=O)O)NC(=O)[C@H](CCCNC(=N)N)NC(=O)[C@H](CCCNC(=N)N)NC(=O)[C@H](CC(C)C)NC(=O)[C@H](Cc1ccc(O)cc1)NC(=O)[C@H](CCCCN)NC(=O)[C@H](C)NC(=O)[C@@H](NC(=O)[C@@H](NC(=O)[C@H](CCC(N)=O)NC(=O)[C@H](CCCNC(=N)N)NC(=O)[C@H](Cc1c[nH]c2ccccc12)NC(=O)[C@H](C)N)[C@@H](C)O)[C@@H](C)CC)C(=O)N[C@@H](CCCNC(=N)N)C(=O)N[C@@H](CCCCN)C(=O)N[C@@H](CCCNC(=N)N)C(=O)NCC(=O)N[C@@H](CCCNC(=N)N)C(=O)N[C@@H](CCCCN)C(=O)N[C@@H](C)C(=O)N[C@H](C(=O)N[C@H](C(=O)N[C@@H](C)C(=O)N[C@@H](Cc1c[nH]c2ccccc12)C(=O)O)[C@@H](C)CC)C(C)C [Syn-sordellicin-18] (H-AWRQTIAKYLRREIRKRGRKAVIAW-OH; N-terminus and C-terminus assumed),1 µM,4 µM,32 µM,8 µM,14.1%,–
–,–,<0.25 µM,16 µM,0.25 µM,0.125 µM,0.125 µM,0.25 µM,CC[C@H](C)[C@H](NC(=O)[C@H](CCCCN)NC(=O)[C@H](CCCCN)NC(=O)CNC(=O)[C@H](CCC(=O)O)NC(=O)[C@H](CCC(N)=O)NC(=O)[C@@H](NC(=O)[C@@H](NC(=O)[C@H](CCCCN)NC(=O)[C@H](CCCCN)NC(=O)[C@H](CC(C)C)NC(=O)[C@H](CCCNC(=N)N)NC(=O)[C@H](CCC(N)=O)NC(=O)[C@H](Cc1ccccc1)NC(=O)[C@@H](NC(=O)[C@H](CCCCN)NC(=O)[C@H](CCC(=O)O)NC(=O)[C@@H](NC(=O)CNC(=O)[C@H](C)N)[C@@H](C)O)[C@@H](C)CC)[C@@H](C)O)[C@@H](C)CC)C(=O)N[C@@H](C)C(=O)N[C@@H](CCCCN)C(=O)N[C@@H](CCCNC(=N)N)C(=O)N[C@@H](Cc1c[nH]c2ccccc12)C(=O)N[C@@H](Cc1c[nH]c2ccccc12)C(=O)O [Syn-larvacin-71] (H-AGTEKIFQRLKKTIQEGKKIAKRWW-OH; N-terminus and C-terminus assumed),–,0.125 µM,<0.25 µM,32 µM,20.6%,0.25 µM
0.25 µM,–,>128 µM,32 µM,–,0.125 µM,–,–,CC[C@H](C)[C@H](NC(=O)[C@H](CCCCN)NC(=O)[C@H](CCCCN)NC(=O)CNC(=O)[C@H](CCC(=O)O)NC(=O)[C@H](CC(N)=O)NC(=O)[C@@H](NC(=O)[C@@H](NC(=O)[C@H](CCCCN)NC(=O)[C@H](CCCCN)NC(=O)[C@H](CC(C)C)NC(=O)[C@H](CCCNC(=N)N)NC(=O)[C@H](CC(N)=O)NC(=O)[C@H](Cc1ccccc1)NC(=O)[C@@H](NC(=O)[C@H](CCCCN)NC(=O)[C@H](CCC(=O)O)NC(=O)[C@@H](NC(=O)CNC(=O)[C@H](C)N)[C@@H](C)O)[C@@H](C)CC)[C@@H](C)O)[C@@H](C)CC)C(=O)N[C@@H](C)C(=O)N[C@@H](CCCCN)C(=O)N[C@@H](CCCNC(=N)N)C(=O)N[C@@H](Cc1c[nH]c2ccccc12)C(=O)N[C@@H](Cc1c[nH]c2ccccc12)C(=O)O [Syn-larvacin-72] (H-AGTEKIFNRLKKTINEGKKIAKRWW-OH; N-terminus and C-terminus assumed),0.25 µM,2 µM,>128 µM,64 µM,26.3%,–
1 µM,0.25 µM,8 µM,64 µM,–,–,–,–,CC[C@H](C)[C@H](NC(=O)[C@H](CCCCN)NC(=O)[C@H](CCCCN)NC(=O)CNC(=O)[C@H](CCC(=O)O)NC(=O)[C@H](CCC(N)=O)NC(=O)[C@@H](NC(=O)[C@H](Cc1c[nH]c2ccccc12)NC(=O)[C@H](CCCCN)NC(=O)[C@H](CCCCN)NC(=O)[C@H](CC(C)C)NC(=O)[C@H](CCCNC(=N)N)NC(=O)[C@H](CCC(N)=O)NC(=O)[C@H](Cc1ccccc1)NC(=O)[C@@H](NC(=O)[C@H](CCCCN)NC(=O)[C@H](CCC(=O)O)NC(=O)[C@@H](NC(=O)CNC(=O)[C@H](C)N)[C@@H](C)O)[C@@H](C)CC)[C@@H](C)CC)C(=O)N[C@@H](C)C(=O)N[C@@H](CCCCN)C(=O)N[C@@H](CCCNC(=N)N)C(=O)N[C@@H](C)C(=O)N[C@@H](Cc1c[nH]c2ccccc12)C(=O)O [Syn-larvacin-31] (H-AGTEKIFQRLKKWIQEGKKIAKRAW-OH; N-terminus and C-terminus assumed),1 µM,0.25 µM,8 µM,128 µM,–,–
